From PMC9609273 (Pharmaceuticals, 2022)
pIC50: −log10 of the molar value. In brackets after ≈: the same amount, converted by molar mass. Like-named read-outs stand apart in the source and are kept apart here.

How the values were obtained:
[1] = test system: Human Embryonic Kidney cells (HEK 293); conditions: for pIC50: read-out: Toxicity IC50 HEK293
[2] = test system: Normal Lung Fibroblasts (IMR-90); type: cell-based, human; conditions: read-out: Toxicity IC50 IMR-90
[3] = test system: Human non-tumorigenic lung epithelial cells (BEAS-2B); type: cell-based; conditions: read-out: Toxicity IC50 BEAS-2B
Mtb H37Rv = assay: microbe, parasite or virus in culture; type: cell-based, Mycobacterium tuberculosis
[4] = 6.0 × 10^–5 M in DMSO and 28% ethanol-water, 24 h, 25 °C
[5] = MABA, Mtb H37Rv, one week at 37 °C

Compound | pIC50 ([1]; MTT, 48 h, triplicate) | pIC50 ([2]; MTT, 48 h, triplicate) | pIC50 ([3]; MTT, 48 h, triplicate) | MIC (Mtb H37Rv; [5]) | Cytotoxicity against HEK293 (in words) ([1]; MTT) | Change in λmax values (stability of hydrazone) [4] | pIC50 [1] | pIC50 [2] | pIC50 [3] | MIC (Mtb H37Rv) | MIC (Mtb H37Rv; Mycobacterium tuberculosis, 168 h, MABA, Mtb H37Rv, one week at 37 °C)
3-((2-Isonicotinoylhydrazono)methyl)phenyl 2,4,6-trimethylbenzenesulfonate [SIH3] | 4.00 | < 4.00 | < 4.00 | 0.62 µM |  |  |  |  |  |  | 
3-((2-Isonicotinoylhydrazono)methyl)phenyl 2,5-dichlorobenzenesulfonate [SIH8] | < 4.00 | 4.00 | < 4.00 | 0.62 µM |  |  |  |  |  |  | 
3-((2-Isonicotinoylhydrazono)methyl)phenyl 3-nitrobenzenesulfonate [SIH10] | < 4.00 | < 4.00 | < 4.00 | 0.62 µM |  |  |  |  |  |  | 
3-((2-Isonicotinoylhydrazono)methyl)phenyl 4-(tert-butyl)benzenesulfonate [SIH2] | < 4.00 | 4.05 | < 4.00 | 0.62 µM |  |  |  |  |  |  | 
3-((2-Isonicotinoylhydrazono)methyl)phenyl 4-acetamidobenzenesulfonate [SIH11] | < 4.00 | < 4.00 | < 4.00 | 0.62 µM |  |  |  |  |  |  | 
3-((2-Isonicotinoylhydrazono)methyl)phenyl 4-bromobenzenesulfonate [SIH5] | 4.00 | 4.04 | < 4.00 | 0.62 µM |  |  |  |  |  |  | 
3-((2-Isonicotinoylhydrazono)methyl)phenyl 4-chlorobenzenesulfonate [SIH6] | < 4.00 | < 4.00 | < 4.00 | 0.62 µM |  |  |  |  |  |  | 
3-((2-Isonicotinoylhydrazono)methyl)phenyl 4-iodobenzenesulfonate [SIH7] | < 4.00 | 4.00 | < 4.00 | 0.62 µM |  |  |  |  |  |  | 
3-((2-Isonicotinoylhydrazono)methyl)phenyl 4-methoxybenzenesulfonate [SIH4] | 4.39 | < 4.00 | < 4.00 | 0.31 µM | moderately toxic | no significant change in λmax values |  |  |  |  | 
3-((2-Isonicotinoylhydrazono)methyl)phenyl 4-methylbenzenesulfonate [SIH1] | 4.24 | < 4.00 | < 4.00 | 0.31 µM | moderately toxic | no significant change in λmax values |  |  |  |  | 
3-((2-Isonicotinoylhydrazono)methyl)phenyl 4-nitrobenzenesulfonate [SIH9] | 4.00 | < 4.00 | < 4.00 | 0.62 µM |  |  |  |  |  |  | 
3-((2-Isonicotinoylhydrazono)methyl)phenyl [1,1′-biphenyl]-4-sulfonate [SIH12] | 4.28 | 4.24 | < 4.00 | 0.31 µM | moderately toxic | no significant change in λmax values |  |  |  |  | 
3-((2-Isonicotinoylhydrazono)methyl)phenyl quinoline-8-sulfonate [SIH13] |  |  |  |  |  |  | 4.23 | 4.00 | < 4.00 | 0.31 µM | 
NNC(=O)c1ccncc1 [Isoniazid, isonicotinic acid hydrazide, reference compound] |  |  |  |  |  |  |  |  |  |  | 0.31 µM (≈ 0.0425 µg/mL)
